# Legend:
# [1] = test system: recombinant human anti-SARS-CoV antibody 03-018; format: binding; design: Binding of antibody 03-018 to linear peptides of the N protein of SARS-CoV Urbani / Binding of antibody 03-018 to looped/cyclic peptides of the N protein of SARS-CoV Urbani: unit not given here
# [2] = test system: rabbit serum obtained by immunizing a rabbit with the SARS-CoV strain Frankfurt 1; format: binding; design: Binding of a rabbit serum to linear peptides / Binding of a rabbit serum to looped peptides / Rabbit serum linear peptides / Rabbit serum looped peptides / Binding of a rabbit serum to linear peptides of protein N of SARS-CoV Urbani (Rabbit serum linear peptides) / Binding of a rabbit serum to looped/cyclic peptides of protein N of SARS-CoV Urbani (Rabbit serum looped peptides): unit not given here
# [3] = test system: control sera (pooled serum of ten healthy LUMC hospital workers; commercial negative donor pooled serum from the Dutch bloodbank); format: binding, human
# [4] = test system: antibodies in sera from SARS patients (sera 1a, 1b, 2, 6, 37, 62, London, SARS-yellow, SARS-green); format: binding, human; design: Binding of serum 6 to linear peptides of protein X1 of SARS-CoV Urbani / Binding of serum 37 to linear peptides of protein X1 of SARS-CoV Urbani / Binding of serum 6 to looped/cyclic peptide (PEPSCAN-ELISA) / Binding of serum 37 to looped/cyclic peptide (PEPSCAN-ELISA) / Binding of serum 37 to looped/cyclic peptides of protein X1 of SARS-CoV Urbani / Binding of serum 6 to linear peptides of protein X2 / Binding of serum 37 to linear peptides of protein X2 / Binding of serum 37 to looped/cyclic peptides of protein X2 of SARS-CoV Urbani / Binding of serum 6 to linear peptides of protein M of SARS-CoV Urbani / Binding of serum 37 to linear peptides of protein M of SARS-CoV Urbani / Binding of serum 6 to looped/cyclic peptides of protein M of SARS-CoV Urbani / Binding of serum 37 to looped/cyclic peptides of protein M of SARS-CoV Urbani / Binding of serum 6 to linear peptides of protein X3 of SARS-CoV Urbani / Binding of serum 37 to linear peptides of protein X3 of SARS-CoV Urbani / Binding of serum 37 to looped/cyclic peptides of protein X3 of SARS-CoV Urbani / Binding of serum 6 to linear peptides of protein X4 of SARS-CoV Urbani / Binding of serum 37 to linear peptides of protein X4 of SARS-CoV Urbani / Binding of serum 37 to looped/cyclic peptides of protein X4 of SARS-CoV Urbani / Binding of serum 6 to linear peptides of protein X5 of SARS-CoV Urbani / Binding of serum 37 to linear peptides of protein X5 of SARS-CoV Urbani / Binding of serum 37 to looped/cyclic peptides of protein X5 of SARS-CoV Urbani / Binding of serum 6 to linear peptides of protein N of SARS-CoV Urbani / Binding of serum 37 to linear peptides of protein N of SARS-CoV Urbani / Binding of serum 6 to linear peptide (PEPSCAN-ELISA) / Binding of serum 1a to looped/cyclic peptides of protein N of SARS-CoV Urbani / Binding of serum 1b to looped/cyclic peptides of protein N of SARS-CoV Urbani / Binding of serum 2 to looped/cyclic peptides of protein N of SARS-CoV Urbani / Binding of serum 6 to looped/cyclic peptides of protein N of SARS-CoV Urbani / Binding of serum 37 to looped/cyclic peptides of protein N of SARS-CoV Urbani / Binding of serum 62 to looped/cyclic peptides of protein N of SARS-CoV Urbani / Binding of serum London to looped/cyclic peptides of protein N of SARS-CoV Urbani / Binding of serum SARS-green to looped/cyclic peptides of protein N of SARS-CoV Urbani: unit not given here
sequence,measurement,setting,value
KKKKTDEAQPLPQRQ,Binding of antibody 03-018 to linear peptides of the N protein of SARS-CoV Urbani,[1],0.1
same,Binding of antibody 03-018 to looped/cyclic peptides of the N protein of SARS-CoV Urbani,[1],0.2
same,Binding of a rabbit serum to linear peptides of protein N of SARS-CoV Urbani (Rabbit serum linear peptides),[2],0.2
same,Binding of a rabbit serum to looped/cyclic peptides of protein N of SARS-CoV Urbani (Rabbit serum looped peptides),[2],0.1
same,Control Serum Blood-Bank Looped peptides,[3],0.6
same,Control serum Blood-bank linear peptides,[3],1.0
same,Control serum LUMC linear peptides,[3],0.9
same,Control serum LUMC looped peptides,[3],0.4
same,Binding of serum 1a to linear peptides of protein N of SARS-CoV Urbani,[4],0.3
same,Binding of serum 1a to looped/cyclic peptides of protein N of SARS-CoV Urbani,[4],0.2
same,Binding of serum 1b to linear peptides of protein N of SARS-CoV Urbani,[4],0.1
same,Binding of serum 1b to looped/cyclic peptides of protein N of SARS-CoV Urbani,[4],0.1
same,Binding of serum 2 to linear peptides of protein N of SARS-CoV Urbani,[4],0.3
same,Binding of serum 2 to looped/cyclic peptides of protein N of SARS-CoV Urbani,[4],0.3
same,Binding of serum 6 to linear peptides of protein N of SARS-CoV Urbani,[4],0.3
same,Binding of serum 6 to looped/cyclic peptides of protein N of SARS-CoV Urbani,[4],0.1
same,Binding of serum 37 to linear peptides of protein N of SARS-CoV Urbani,[4],0.7
same,Binding of serum 37 to looped/cyclic peptides of protein N of SARS-CoV Urbani,[4],0.4
same,Binding of serum 62 to linear peptides of protein N of SARS-CoV Urbani,[4],0.7
same,Binding of serum 62 to looped/cyclic peptides of protein N of SARS-CoV Urbani,[4],0.3
same,Binding of serum London to linear peptides of protein N of SARS-CoV Urbani,[4],0.8
same,Binding of serum London to looped/cyclic peptides of protein N of SARS-CoV Urbani,[4],0.3
same,Binding of serum SARS-green to linear peptides of protein N of SARS-CoV Urbani,[4],0.6
same,Binding of serum SARS-green to looped/cyclic peptides of protein N of SARS-CoV Urbani,[4],0.1
same,Binding of serum SARS-yellow to linear peptides of protein N of SARS-CoV Urbani,[4],0.9
same,Binding of serum SARS-yellow to looped/cyclic peptides of protein N of SARS-CoV Urbani,[4],0.2
KKKTDEAQPLPQRQK,Binding of antibody 03-018 to linear peptides of the N protein of SARS-CoV Urbani,[1],0.1
same,Binding of antibody 03-018 to looped/cyclic peptides of the N protein of SARS-CoV Urbani,[1],0.2
same,Binding of a rabbit serum to linear peptides of protein N of SARS-CoV Urbani (Rabbit serum linear peptides),[2],0.2
same,Binding of a rabbit serum to looped/cyclic peptides of protein N of SARS-CoV Urbani (Rabbit serum looped peptides),[2],0.1
same,Control Serum Blood-Bank Looped peptides,[3],0.4
same,Control serum Blood-bank linear peptides,[3],0.9
same,Control serum LUMC linear peptides,[3],0.8
same,Control serum LUMC looped peptides,[3],0.3
same,Binding of serum 1a to linear peptides of protein N of SARS-CoV Urbani,[4],0.2
same,Binding of serum 1a to looped/cyclic peptides of protein N of SARS-CoV Urbani,[4],0.2
same,Binding of serum 1b to linear peptides of protein N of SARS-CoV Urbani,[4],0.1
same,Binding of serum 1b to looped/cyclic peptides of protein N of SARS-CoV Urbani,[4],0.1
same,Binding of serum 2 to linear peptides of protein N of SARS-CoV Urbani,[4],0.2
same,Binding of serum 2 to looped/cyclic peptides of protein N of SARS-CoV Urbani,[4],0.1
same,Binding of serum 6 to linear peptides of protein N of SARS-CoV Urbani,[4],0.7
same,Binding of serum 6 to looped/cyclic peptides of protein N of SARS-CoV Urbani,[4],0.0
same,Binding of serum 37 to linear peptides of protein N of SARS-CoV Urbani,[4],0.9
same,Binding of serum 37 to looped/cyclic peptides of protein N of SARS-CoV Urbani,[4],0.3
same,Binding of serum 62 to linear peptides of protein N of SARS-CoV Urbani,[4],0.6
same,Binding of serum 62 to looped/cyclic peptides of protein N of SARS-CoV Urbani,[4],0.2
same,Binding of serum London to linear peptides of protein N of SARS-CoV Urbani,[4],1.1
same,Binding of serum London to looped/cyclic peptides of protein N of SARS-CoV Urbani,[4],0.3
same,Binding of serum SARS-green to linear peptides of protein N of SARS-CoV Urbani,[4],0.4
same,Binding of serum SARS-green to looped/cyclic peptides of protein N of SARS-CoV Urbani,[4],0.0
same,Binding of serum SARS-yellow to linear peptides of protein N of SARS-CoV Urbani,[4],1.0
same,Binding of serum SARS-yellow to looped/cyclic peptides of protein N of SARS-CoV Urbani,[4],0.0

# — patent US20070128217A1 (priority 2003, published 2007)
